Patent US9573987B2 (priority 2011, dated 2017)
*1 amine or outer side, *2 acyl side, *3 side chain or, on linkers, in order; H or OH if unused. Where a SMILES comes first, the peptide text is derived from it. Side-chain parts run from the residue outwards. [ ]: non-standard residue; d: D form. The star is where a group is joined. Phe(4-NH2) = Nc1ccc(C[C@H](N)C(=O)O)cc1; εLys = N[C@@H](CCCCN[*:1])C(=O)[*:2]; Isobutyryl(2-OH) = CC(C)(O)C(=O)*; NMeA = CN[C@@H](C)C(=O)O; Sar = CNCC(=O)O

Assays:
[1] = Dipeptide half life on IGF1 (p-NH2-F)A19 analogs in PBS; assay type: physicochemical; settings: buffer
Method: Accordingly, the IGF1A chain alone was determined to be a good model for the study of pro-drug half life on IGF1 B:A (Y^B16L^B17) analog peptides. […] For simplicity, prodrug half lives were determined using only the IGF1 A chain in the absence of the B chain. The half lives of each propeptide was determined as described in Example 5.

IGF-1 receptor [2] = molecular target: T1, IGF-1 receptor (Homo sapiens, UniProt P08069); assay: IGF-1 receptor binding assay (competition, scintillation proximity); set-up: expressed in transfected cells; plasma membrane fragments; settings: Table 9
insulin receptor = insulin receptor (Homo sapiens, UniProt P06213); assay: Insulin receptor binding assay (competition, scintillation proximity); set-up: expressed in transfected cells; plasma membrane fragments
IGF-1 receptor [3] = molecular target: T1, IGF-1 receptor; assay: IGF-1 receptor phosphorylation assay, receptor transfected HEK293 cells; assay type: cell-based; set-up: expressed in transfected cells; host or cells: HEK293; settings: Table 10
Method: Color development was stopped 5 min later by adding 0.05 ml 1 N HCl. Absorbance at 450 nm was measured on Titertek Multiscan MCC340 (ThermoFisher, Pittsburgh, Pa.).

T1 sequence (P08069 31-736 limits assumed): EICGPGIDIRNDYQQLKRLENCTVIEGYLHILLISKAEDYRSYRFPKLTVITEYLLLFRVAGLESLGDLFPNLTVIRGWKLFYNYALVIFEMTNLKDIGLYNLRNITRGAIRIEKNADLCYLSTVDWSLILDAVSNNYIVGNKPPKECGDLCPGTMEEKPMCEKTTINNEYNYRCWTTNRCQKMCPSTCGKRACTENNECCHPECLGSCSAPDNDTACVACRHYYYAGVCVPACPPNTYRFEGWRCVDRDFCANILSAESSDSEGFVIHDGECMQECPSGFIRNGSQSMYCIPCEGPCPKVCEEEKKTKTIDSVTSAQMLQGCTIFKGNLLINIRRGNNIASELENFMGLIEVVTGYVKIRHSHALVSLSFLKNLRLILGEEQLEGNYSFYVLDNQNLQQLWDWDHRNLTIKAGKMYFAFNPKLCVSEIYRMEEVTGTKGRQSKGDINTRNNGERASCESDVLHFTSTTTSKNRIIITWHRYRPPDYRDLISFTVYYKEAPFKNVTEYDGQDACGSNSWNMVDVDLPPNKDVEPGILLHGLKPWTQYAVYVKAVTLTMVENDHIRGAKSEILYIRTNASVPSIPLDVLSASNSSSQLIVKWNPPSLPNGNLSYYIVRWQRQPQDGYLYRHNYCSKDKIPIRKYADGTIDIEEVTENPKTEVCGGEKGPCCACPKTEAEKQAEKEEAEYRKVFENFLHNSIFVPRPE
T1 sequence (P08069 741-1367 partner limits assumed): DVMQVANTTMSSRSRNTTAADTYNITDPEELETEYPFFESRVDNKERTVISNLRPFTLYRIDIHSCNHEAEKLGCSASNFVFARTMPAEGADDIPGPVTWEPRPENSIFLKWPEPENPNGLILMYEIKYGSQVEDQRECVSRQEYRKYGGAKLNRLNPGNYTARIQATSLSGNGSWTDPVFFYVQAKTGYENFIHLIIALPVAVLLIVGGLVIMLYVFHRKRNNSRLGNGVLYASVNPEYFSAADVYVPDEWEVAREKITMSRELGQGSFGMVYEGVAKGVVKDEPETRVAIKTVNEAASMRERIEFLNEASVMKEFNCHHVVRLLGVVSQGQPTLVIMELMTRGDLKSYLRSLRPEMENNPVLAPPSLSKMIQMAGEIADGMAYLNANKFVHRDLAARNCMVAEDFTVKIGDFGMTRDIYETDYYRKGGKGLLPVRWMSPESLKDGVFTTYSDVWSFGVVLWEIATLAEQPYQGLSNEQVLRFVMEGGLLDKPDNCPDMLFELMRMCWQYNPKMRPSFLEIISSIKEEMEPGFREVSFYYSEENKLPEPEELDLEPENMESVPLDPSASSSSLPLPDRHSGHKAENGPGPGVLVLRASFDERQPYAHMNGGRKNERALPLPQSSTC
insulin receptor, sequence (P06213 28-758 limits assumed): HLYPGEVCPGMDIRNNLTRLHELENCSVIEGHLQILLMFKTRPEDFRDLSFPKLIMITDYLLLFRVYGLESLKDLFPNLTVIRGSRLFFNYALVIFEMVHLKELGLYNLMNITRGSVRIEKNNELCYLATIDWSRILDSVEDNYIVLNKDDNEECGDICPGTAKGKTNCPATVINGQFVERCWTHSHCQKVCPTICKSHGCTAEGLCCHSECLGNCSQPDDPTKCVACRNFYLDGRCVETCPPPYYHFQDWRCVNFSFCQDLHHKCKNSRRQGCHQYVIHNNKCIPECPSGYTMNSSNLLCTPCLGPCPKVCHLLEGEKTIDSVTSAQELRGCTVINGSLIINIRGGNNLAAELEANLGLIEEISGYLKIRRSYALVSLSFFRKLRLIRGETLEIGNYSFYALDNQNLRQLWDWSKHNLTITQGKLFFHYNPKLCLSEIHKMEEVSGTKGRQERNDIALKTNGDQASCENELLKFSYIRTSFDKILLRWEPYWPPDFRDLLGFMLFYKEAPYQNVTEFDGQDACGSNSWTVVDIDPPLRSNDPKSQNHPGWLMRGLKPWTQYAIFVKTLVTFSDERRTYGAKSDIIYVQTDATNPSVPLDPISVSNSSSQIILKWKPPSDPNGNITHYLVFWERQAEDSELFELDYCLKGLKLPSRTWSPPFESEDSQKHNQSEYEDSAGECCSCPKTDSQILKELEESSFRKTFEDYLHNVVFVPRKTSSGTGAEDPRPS
insulin receptor, sequence (P06213 763-1382 partner limits assumed): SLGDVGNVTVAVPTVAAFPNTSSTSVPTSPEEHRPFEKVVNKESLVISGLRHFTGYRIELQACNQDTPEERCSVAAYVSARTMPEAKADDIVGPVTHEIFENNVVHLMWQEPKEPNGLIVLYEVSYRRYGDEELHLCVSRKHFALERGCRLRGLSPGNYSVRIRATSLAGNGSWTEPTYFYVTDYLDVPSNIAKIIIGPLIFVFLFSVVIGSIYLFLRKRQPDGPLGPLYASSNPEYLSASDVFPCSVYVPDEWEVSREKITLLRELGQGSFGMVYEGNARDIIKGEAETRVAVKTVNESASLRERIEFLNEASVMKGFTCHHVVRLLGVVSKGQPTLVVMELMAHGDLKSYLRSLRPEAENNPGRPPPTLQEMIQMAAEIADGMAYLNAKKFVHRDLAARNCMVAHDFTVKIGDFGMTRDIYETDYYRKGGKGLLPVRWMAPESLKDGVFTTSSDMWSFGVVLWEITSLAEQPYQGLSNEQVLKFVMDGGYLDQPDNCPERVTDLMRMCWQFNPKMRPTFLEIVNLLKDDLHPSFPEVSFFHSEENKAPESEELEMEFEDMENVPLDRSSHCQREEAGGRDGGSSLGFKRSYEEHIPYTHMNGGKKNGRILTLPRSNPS

Row | half-life ([1]; Half Life (hr)) | half-life ([1]; Half Life (hr) PBS) | IGF-1 Receptor % IGF-1 (in test) (IGF-1 receptor [2]) | Ratio (insulin receptor; IGF-1 receptor IC50 over insulin receptor IC50) | Insulin Receptor % insulin (in test) (insulin receptor; Table 9) | IGF-1 Receptor % IGF (IGF-1 receptor [3]) | EC50 (IGF-1 receptor [3]; total phosphorylation) | Compound
1 | 165 h | 165 h | – | – | – | – | – | CC[C@H](C)[C@H](NC(=O)CN)C(=O)N[C@H](C(=O)N[C@@H](CC(=O)O)C(=O)N[C@@H](CCC(=O)O)C(=O)N[C@@H](C)C(=O)N[C@@H](C)C(=O)N[C@@H](Cc1ccccc1)C(=O)N[C@@H](CCCNC(=N)N)C(=O)N[C@@H](CO)C(=O)N[C@@H](C)C(=O)N[C@@H](CC(=O)O)C(=O)N[C@@H](CC(C)C)C(=O)N[C@@H](CCCNC(=N)N)C(=O)N[C@@H](CCCNC(=N)N)C(=O)N[C@@H](CC(C)C)C(=O)N[C@@H](CCC(=O)O)C(=O)N[C@@H](CCSC)C(=O)N[C@@H](Cc1ccc(NC(=O)[C@@H]2CCCN2C(=O)C(C)(C)O)cc1)C(=O)N[C@@H](C)C(=O)N[C@@H](C)C(N)=O)C(C)C [AiBOH Pro] (H-GIVDEAAFRSADLRRLEM[Phe(4-NH2)]([Pro-Isobutyryl(2-OH)])AA-NH2; N-terminus assumed)
2 | 2.3 h | 2.3 h | – | – | – | – | – | CC[C@H](C)[C@H](NC(=O)CN)C(=O)N[C@H](C(=O)N[C@@H](CC(=O)O)C(=O)N[C@@H](CCC(=O)O)C(=O)N[C@@H](C)C(=O)N[C@@H](C)C(=O)N[C@@H](Cc1ccccc1)C(=O)N[C@@H](CCCNC(=N)N)C(=O)N[C@@H](CO)C(=O)N[C@@H](C)C(=O)N[C@@H](CC(=O)O)C(=O)N[C@@H](CC(C)C)C(=O)N[C@@H](CCCNC(=N)N)C(=O)N[C@@H](CCCNC(=N)N)C(=O)N[C@@H](CC(C)C)C(=O)N[C@@H](CCC(=O)O)C(=O)N[C@@H](CCSC)C(=O)N[C@@H](Cc1ccc(NC(=O)CN(C)C(=O)C(C)(C)O)cc1)C(=O)N[C@@H](C)C(=O)N[C@@H](C)C(N)=O)C(C)C [AiBOH Sar] (H-GIVDEAAFRSADLRRLEM[Phe(4-NH2)]([Sar-Isobutyryl(2-OH)])AA-NH2; N-terminus assumed)
3 | – | – | 11.2% | 29.1 | 479.0% | 7.1% | 12.2 nM | CC[C@H](C)[C@H](NC(=O)CN)C(=O)N[C@H](C(=O)N[C@@H](CC(=O)O)C(=O)N[C@@H](CCC(=O)O)C(=O)N[C@H]1CSSC[C@@H]2NC(=O)[C@H](CO)NC(=O)[C@H](CCCNC(=N)N)NC(=O)[C@H](Cc3ccccc3)NC(=O)[C@H](CSSC[C@H](NC(=O)[C@H](CC(C)C)NC(=O)[C@H](Cc3c[nH]cn3)NC(=O)[C@H](CCC(=O)O)NC(=O)[C@@H]3CCCN3C(=O)CN)C(=O)NCC(=O)N[C@@H](C)C(=O)N[C@@H](CC(=O)O)C(=O)N[C@@H](CC(C)C)C(=O)N[C@@H](C(C)C)C(=O)N[C@@H](CC(=O)O)C(=O)N[C@@H](C)C(=O)N[C@@H](CC(C)C)C(=O)N[C@@H](Cc3ccc(O)cc3)C(=O)N[C@@H](CC(C)C)C(=O)N[C@@H](C(C)C)C(=O)N[C@H](C(=O)NCC(=O)N[C@@H](CC(=O)O)C(=O)N[C@@H](CCCNC(=N)N)C(=O)NCC(=O)N[C@@H](Cc3ccccc3)C(=O)N[C@@H](Cc3ccc(O)cc3)C(N)=O)CSSC[C@@H](C(=O)N[C@@H](C)C(N)=O)NC(=O)[C@H](Cc3ccc(O)cc3)NC(=O)[C@H](CCSC)NC(=O)[C@H](CCC(=O)O)NC(=O)[C@H](CC(C)C)NC(=O)[C@H](CCCNC(=N)N)NC(=O)[C@H](CCCNC(=N)N)NC(=O)[C@H](CC(C)C)NC(=O)[C@H](CC(=O)O)NC2=O)NC1=O)C(C)C [IGF-1 A:B (H5D10Y16L17) DPI]
4 | 23.6 h | 23.6 h | – | – | – | – | – | CC[C@H](C)[C@H](NC(=O)CN)C(=O)N[C@H](C(=O)N[C@@H](CC(=O)O)C(=O)N[C@@H](CCC(=O)O)C(=O)N[C@@H](C)C(=O)N[C@@H](C)C(=O)N[C@@H](Cc1ccccc1)C(=O)N[C@@H](CCCNC(=N)N)C(=O)N[C@@H](CO)C(=O)N[C@@H](C)C(=O)N[C@@H](CC(=O)O)C(=O)N[C@@H](CC(C)C)C(=O)N[C@@H](CCCNC(=N)N)C(=O)N[C@@H](CCCNC(=N)N)C(=O)N[C@@H](CC(C)C)C(=O)N[C@@H](CCC(=O)O)C(=O)N[C@@H](CCSC)C(=O)N[C@@H](Cc1ccc(NC(=O)[C@H](C)N(C)C(=O)[C@@H](N)CCCCNC(C)=O)cc1)C(=O)N[C@@H](C)C(=O)N[C@@H](C)C(N)=O)C(C)C [K(acetyl) N-methyl Ala] (H-GIVDEAAFRSADLRRLEM[Phe(4-NH2)]([NMeA-εLys-Ac])AA-NH2; N-terminus assumed)
